Test results reported in patent publication US20070292478A1 (priority 2004, published 2007).

Key:
[1] = test system: prostate tumours; conditions: clinical trial, cited from earlier work
[2] = test system: tumour; assay: local delivery of rhodamine on an implant; type: in vivo; conditions: delivering 40 or 50 mg locally on implant
Description: Furthermore, the lethal dose can be greatly exceeded. […] Such a dose, delivered systemically, would require 100 g of rhodamine, more than 1000 times the lethal dose.

[3] = maximal tolerated dose of Rhodamine 123 delivered intravenously in man; type: in vivo; conditions: 70 kg patient, each injection
Method: Because inhibitors of oxidative phosphorylation are toxic to a subject in the doses needed for efficacy via the systemic route, such inhibitors have been largely overlooked for effective treatment of conditions such as cancer. […] It is also known that the maximal tolerated dose of Rhodamine 123 delivered intravenously in man is 95 mg/m^2. For a 70 kg patient, the tolerated dose of systemically delivered rhodamine is about 150 mg for each injection.

## rhodamine
[1]; maximum non-lethal systemic doses
  effect on prostate tumours: did not shown any significant effect
[1]; systemic delivery
  accumulation in the prostate of the patients: accumulation was confirmed
[2]
  tumour outcome: leads to tumour death
[3]
  tolerated dose of systemically delivered rhodamine: about 150 mg
